Laboratory results taken from PMC10753699, “Synthesis of Some New 1,3,4-Oxadiazole Derivatives and Evaluation of Their Anticancer Activity” (ACS Omega, 2023).

What was measured:
MMP-9 enzyme = molecular target: T1, MMP-9 enzyme (Homo sapiens, UniProt P14780); assay: MMP-9 colorimetric inhibition assay; format: biochemical; conditions: for inhibition at 100 µg/mL: at 100 μg/mL
T1 construct: purchased EnzoLife Sciences Inc. (Farmingdale, New York, NY, USA)
From the text: As described in our previous study,[36] the method was applied in exactly the same manner. EnzoLife Sciences Inc. provided MMP-9 colorimetric kits (Farmingdale, New York, NY, USA). The MMP Colorimetric Drug Discovery Kits are a comprehensive test technique that uses a thiopeptide (Ac-PLG-[2-mercapto-4-methyl-pentanoyl]-LG-OC2H5) as a chromogenic substrate to screen MMP inhibitors. Using a microplate reader (BioTek, PowerWave, Gen5 software, Winooski, VT, USA) at room temperature, the UV absorbance was measured at 412 nm. NNGH was employed as an inhibitor of control.

[1] = tested on: L929 murine fibroblast cell line; assay: MTT cell viability / cytotoxicity on L929 (healthy cells); format: cell-based, mouse; conditions: mean ± S.D. of three determinations
Procedure: (§1) In 75 cm^2 sterile plastic tissue culture flasks, the human lung adenocarcinoma A549 and the mouse fibroblast L929 cell lines were cultured in 90% RPMI (Sigma, Deisenhofen, Germany) media supplemented with 10% (v/v) FBS (Gibco, Paisley, UK) and adherent monolayers of penicillin/streptomycin (100 units/mL) from Gibco, Paisley, UK. These cells were cultured at 37 °C in an environment that was humidified and contained 5% CO2.
(§2) The MTT (3-(4,5-dimethylthiazol-2-yl)-2,5-diphenyltetrazolium bromide) method was applicated to assess the cell viability of L929, C6 and A549 cell lines against the tested compounds according to the reported data.[51] In 96-well plates with a flat bottom, the A549, C6, and L929 cells were cultivated at a density of 5 × 10^3 cells per well. […] After addition, they were incubated for a full day in culture wells. Following the incubation period, 20 μL of phosphate-buffered saline (PBS) (Gibco, Paisley, UK) containing 5 mg/mL MTT powder (Sigma-Aldrich, St. Louis, MO, USA) was added to each well. The medium was taken out of the plate and replaced with 100 μL of DMSO in each well to dissolve the dye. This was left for 2 to 4 h under the same conditions and then left for 10 min. At the conclusion of the procedure, purple formazan, the reduction product of the MTT agent, was formed by the mitochondrial dehydrogenase enzyme of intact cells. A microtiter plate reader (BioTek Plate Reader, Winooski, VT, USA) was used to measure the cells at 540 nm. Cell viability was measured as a percentage and contrasted with that of the cells in the control group. Half-maximal inhibitory concentration 50 (IC50) values were determined by repeating each concentration in three wells and identifying the drug concentrations that decreased the absorbance to 50% of control values. The medium control served as the basis for calculating the percentage of viable cells.

C6 rat glioma cell line = assay: MTT cell viability / cytotoxicity on C6; format: cell-based; conditions: mean ± S.D. of three determinations
Procedure: as §2

[2] = tested on: A549 human lung cancer cell line; assay: MTT cell viability / cytotoxicity on A549; format: cell-based; conditions: for IC50: MTT, mean ± S.D. of three determinations; for inhibition of A549 at the lowest concentration tested: A549, MTT; for SI (L929/A549): selectivity index = IC50 on normal cells/IC50 on cancer cells
Procedure: as §1, §2

A549 cells [3] = assay: Mitochondrial membrane depolarization (JC-1, flow cytometry); format: cell-based, human; conditions: A549, IC50 concentration, 24 h
Procedure: Staining of cells with JC-1 was realized according to the manufacturer’s recommendations of BD, Pharmingen Flow cytometry kit. […] For this purpose, cells were seeded at an optimal density in six-well plates (not exceeding 1 × 10^6/mL cells). The cells were then incubated with the substances to be tested at the appropriate concentration and time. After the treatment, each cell suspension was taken into a 15 mL polystyrene centrifuge tube and the cells were centrifuged at 400g for 5 min and removed from the supernatant. 0.5 mL of a freshly prepared working solution was added to each pellet, and the solution was vortexed. The test cells were soaked in a JC-1 working solution at 37 °C for 10–15 min, and the cells were washed twice. In the first wash, 2 mL of 1X assay buffer was added and the cells were suspended sensitively. Then, the cells were centrifuged at 400g for 5 min and the supernatant was removed, carefully. In the second wash, 1 mL of 1X assay buffer was added and vortexed. After the cells were centrifuged at 400g for 5 min, each cell pellet was suspended in 0.5 mL 1X assay buffer and vortexed. Finally, the cell was analyzed by a flow cytometer.

caspase-3 = assay: Caspase-3 activation in A549 cells; format: cell-based, human; conditions: A549, IC50 of the compounds, 24 h
Procedure: The Spectrofluorometric Caspase-3 Assay kit (BD Pharmingen, Franklin Lakes, NJ) was used to assess the activation of caspase-3. The purpose of the kit was to measure the early indicator of cells going through apoptosis, known as caspase-3 or the DEVD-cleaving activity. First, 1 × 10^6 cells/mL of cells were resuspended in cold cell lysis buffer, rinsed with PBS, and then allowed to sit on ice for 30 min. […] In each reaction, a well containing 0.2 mL of 1 x HEPES buffer was filled with […] of reconstituted AcDEVD-AMC, a synthetic tetrapeptide fluorogenic substrate for caspase-3 activity. Each reaction/well received 20 μL of cell lysate. The reaction mixtures were incubated at 37 °C for 1 h. Using a microplate reader (Perkin-Elmer/Victor/X3) with an excitation wavelength of 380 nm and an emission wavelength of 460 nm, the amount of AMC released from Ac-DEVD-AMC was quantified. When compared with controls, apoptotic cell lysates containing active caspase-3 produced a significant emission. […] For all doses, duplicate wells were used. This experiment was performed according to Yurttaş et al.[52]

A549 cells [4] = assay: Cell cycle analysis by flow cytometry; format: cell-based, human; conditions: A549, 24 h incubation
Procedure: Following a 24 h incubation period with the compounds, a cell cycle analysis measurement methodology was implemented in compliance with the manufacturer’s instructions for A549 cells (BD, Biosciences). Next, the cells were immersed in citrate buffer for a short while. At room temperature, the cells were centrifuged for 5 min at 400 g. After the supernatant was decanted, 250 μL of solution A was added to the pellet, and it was allowed to sit at room temperature for 10 min. Solution B (200 μL) was then added, carefully mixed, and incubated at room temperature for 10 min. Solution C (200 μL) was then added. It was gently mixed, allowed to stand at 4 °C for 10 min in the dark, and then examined using BD Bioscience’s MODFID software on a flow cytometer. This method was applied in our previous study.[54]

A549 cells [5] = assay: Early/late apoptosis by Annexin V-FITC/PI flow cytometry; format: cell-based, human; conditions: A549, IC50 dose, 24 h incubation
Procedure: Phosphatidylserine externalization, a marker of early apoptosis, was assessed using the FITC Annexin V apoptosis detection kit (BD Pharmingen, San Jose, CA, USA) on a BD FACSAria flow cytometer. Following their collection, the A549 and L929 cells were twice washed in ice-cold PBS before being resuspended in 100 μL of binding buffer. The cells were treated with a volume of 5 μL (5 μg/mL) of Annexin V-FITC and PI, and they were incubated for 15 min at room temperature (20–25 °C) in the dark. Following that, 400 μL of binding buffer was added to the combination samples, and FACSDiva version 6.1.1 was used to analyze the samples on a BD FACSAria flow cytometer.

[6] = Mus musculus, L929, L929 healthy cell line
[7] = Homo sapiens, A549, A549 cell line

T1 sequence (P14780 107-444 limits assumed): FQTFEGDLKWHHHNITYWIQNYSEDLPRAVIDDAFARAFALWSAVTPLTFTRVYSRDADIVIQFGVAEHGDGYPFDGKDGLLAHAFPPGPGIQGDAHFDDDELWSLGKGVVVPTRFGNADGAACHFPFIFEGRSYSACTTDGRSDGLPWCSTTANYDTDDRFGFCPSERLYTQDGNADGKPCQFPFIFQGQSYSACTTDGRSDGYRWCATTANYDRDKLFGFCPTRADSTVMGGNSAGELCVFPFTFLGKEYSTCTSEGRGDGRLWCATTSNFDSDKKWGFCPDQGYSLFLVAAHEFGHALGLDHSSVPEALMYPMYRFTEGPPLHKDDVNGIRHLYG

| SMILES | inhibition at 100 µg/mL (MMP-9 enzyme) | IC50 (MMP-9 enzyme) | melting point | IC50 [1, 6] | IC50 (C6 rat glioma cell line) | IC50 [2, 7] | IC50 ([1]; L929 healthy cell line) | SI (L929/A549) [2] | mitochondrial membrane depolarization % (A549 cells [3]) | mitochondrial membrane polarization % (A549 cells [3]) | % (+): caspase-3 activity positive cells (caspase-3) | % (−): caspase-3 activity negative cells (caspase-3) | % S (A549 cells [4]) | G0/G1% (A549 cells [4]) | G2/M % (A549 cells [4]) | Q1: necrotic cells (A549 cells [5]) | Q2 + Q4: early and late apoptotic cells (A549 cells [5]) | Q2: late apoptotic cells (A549 cells [5]) | Q3: viable cells (A549 cells [5]) | Q4: early apoptotic cells (A549 cells [5]) | further results |
| --- | --- | --- | --- | --- | --- | --- | --- | --- | --- | --- | --- | --- | --- | --- | --- | --- | --- | --- | --- | --- | --- |
| CC(=O)Nc1ccccc1OCc1nnc(SCC(=O)Nc2ccc(Cl)cc2)o1 [Compound 4k, 2-[(5-((2-Acetamidophenoxy)methyl)-1,3,4-oxadiazol-2-yl)thio]-N-(4-chlorophenyl)acetamide] | 48.4 ± 3.56% | – | – | 38.2 ± 4.91 µM | > 1000 µM | 7.48 ± 0.58 µM | – | – | 6.29% | 93.04% | 1.8% | 98.5% | 18.11% | 63.31% | 18.58% | 33.19% | 17.98% | 10.35% | 48.83% | 7.63% | – |
| CC(=O)Nc1ccccc1OCc1nnc(SCC(=O)Nc2ccc([N+](=O)[O-])cc2)o1 [Compound 4j, 2-[(5-((2-Acetamidophenoxy)methyl)-1,3,4-oxadiazol-2-yl)thio]-N-(4-nitrophenyl)acetamide] | > 50% | 22 ± 1.41 µM | 210 to 215 °C | < 7.96 µM | > 1000 µM | < 8.8 µM | < 8.8 µM | <1 | – | – | – | – | – | – | – | – | – | – | – | – | inhibition of A549 at the lowest concentration tested [2]: greater than 50% |
| CC(=O)Nc1ccccc1OCc1nnc(SCC(=O)Nc2ccc(F)cc2)o1 [Compound 4l, 2-[(5-((2-Acetamidophenoxy)methyl)-1,3,4-oxadiazol-2-yl)thio]-N-(4-fluorophenyl)acetamide] | > 75% | 2.55 ± 0.66 µM | – | 397 ± 10.2 µM | > 1000 µM | 1.8 ± 0.12 µM | – | – | 8.71% | 90.58% | 1.4% | 98.8% | 6.62% | 69.36% | 24.03% | 32.81% | 18.49% | 11.46% | 48.70% | 7.03% | – |
| N.N.[Cl][Pt][Cl] [cisplatin, reference compound] | – | – | – | – | – | – | – | – | 22.36% | 76.67% | 11.3% | 90.0% | 2.18% | 74.75% | 23.07% | 28.01% | 10.07% | 5.04% | – | 5.03% | IC50 ([2]; A549 cell line): 4.98 ± 0.66 µM |

Now from value to compound, other results behind:

| inhibition at 100 µg/mL (MMP-9 enzyme) | IC50 (MMP-9 enzyme) | melting point | SMILES | IC50 [1, 6] | IC50 (C6 rat glioma cell line) | IC50 [2, 7] | IC50 ([1]; L929 healthy cell line) | SI (L929/A549) [2] | mitochondrial membrane depolarization % (A549 cells [3]) | mitochondrial membrane polarization % (A549 cells [3]) | % (+): caspase-3 activity positive cells (caspase-3) | % (−): caspase-3 activity negative cells (caspase-3) | % S (A549 cells [4]) | G0/G1% (A549 cells [4]) | G2/M % (A549 cells [4]) | Q1: necrotic cells (A549 cells [5]) | Q2 + Q4: early and late apoptotic cells (A549 cells [5]) | Q2: late apoptotic cells (A549 cells [5]) | Q3: viable cells (A549 cells [5]) | Q4: early apoptotic cells (A549 cells [5]) | further results |
| --- | --- | --- | --- | --- | --- | --- | --- | --- | --- | --- | --- | --- | --- | --- | --- | --- | --- | --- | --- | --- | --- |
| 49.5 ± 1.86% | – | – | CC(=O)Nc1ccccc1OCc1nnc(SCC(=O)Nc2nc3ccc(Cl)cc3s2)o1 [Compound 4b, 2-[(5-((2-Acetamidophenoxy)methyl)-1,3,4-oxadiazol-2-yl)thio]-N-(6-chlorobenzothiazol-2-yl)acetamide] | < 7.96 µM | 19.9 ± 6.33 µM | 24.5 ± 5.76 µM | – | – | – | – | – | – | – | – | – | – | – | – | – | – | – |
| > 75% | 7.1 ± 1.27 µM | 208 to 212 °C | CCOc1ccc2nc(NC(=O)CSc3nnc(COc4ccccc4NC(C)=O)o3)sc2c1 [Compound 4g, 2-[(5-((2-Acetamidophenoxy)methyl)-1,3,4-oxadiazol-2-yl)thio]-N-(6-ethoxybenzothiazol-2-yl)acetamide] | < 7.96 µM | 8.16 ± 0.24 µM | < 7.82 µM | < 7.82 µM | <1 | – | – | – | – | – | – | – | – | – | – | – | – | inhibition of A549 at the lowest concentration tested [2]: greater than 50% |
| 41.4 ± 1.85% | – | 189 to 194 °C | CC(=O)Nc1ccccc1OCc1nnc(SCC(=O)Nc2nc3ccccc3s2)o1 [Compound 4a, 2-[(5-((2-Acetamidophenoxy)methyl)-1,3,4-oxadiazol-2-yl)thio]-N-(benzothiazol-2-yl)acetamide] | 586 ± 22.9 µM | 18.5 ± 5.58 µM | 22.3 ± 1.67 µM | – | 26.250 | – | – | – | – | – | – | – | – | – | – | – | – | – |
| 27.6 ± 2.01% | – | – | CC(=O)Nc1ccccc1OCc1nnc(SCC(=O)Nc2nc3ccc([N+](=O)[O-])cc3s2)o1 [Compound 4d, 2-[(5-((2-Acetamidophenoxy)methyl)-1,3,4-oxadiazol-2-yl)thio]-N-(6-nitrobenzothiazol-2-yl)acetamide] | < 7.96 µM | 28.3 ± 12.1 µM | > 1030 µM | < 7.8 µM | – | – | – | – | – | – | – | – | – | – | – | – | – | IC50 ([2]; A549 cell line): > 1000 µM |
| 30.6 ± 2.29% | – | – | COc1ccc2nc(NC(=O)CSc3nnc(COc4ccccc4NC(C)=O)o3)sc2c1 [Compound 4c, 2-[(5-((2-Acetamidophenoxy)methyl)-1,3,4-oxadiazol-2-yl)thio]-N-(6-methoxybenzothiazol-2-yl)acetamide] | 8.52 ± 0.31 µM | 22.1 ± 23.7 µM | > 1030 µM | – | – | – | – | – | – | – | – | – | – | – | – | – | – | IC50 ([2]; A549 cell line): > 1000 µM |
| 40.9 ± 2.54% | – | – | COc1ccc(NC(=O)CSc2nnc(COc3ccccc3NC(C)=O)o2)cc1 [Compound 4i, 2-[(5-((2-Acetamidophenoxy)methyl)-1,3,4-oxadiazol-2-yl)thio]-N-(4-methoxyphenyl)acetamide] | 14.6 ± 1.59 µM | – | 1.59 ± 0.44 µM | – | – | 8.84% | 90.51% | 1.9% | 98.2% | 8.09% | 78.78% | 12.14% | 30.12% | 21.54% | 9.75% | 48.35% | 11.79% | – |
